Reference: patent US20180071317A1, “USE OF AGENTS THAT ALTER THE PERITUMORAL ENVIRONMENT FOR THE TREATMENT OF CANCER” (SERVICIO ANDALUZ DE SALUD, priority 2011, published 2018)

Assays:
[1] = system: fibroblasts (PHF) co-cultured with human fibrosarcoma tumor cells (HT-1080); experiment: Marker expression (IHC) in PHF co-cultured with HT-1080 tumor cells; assay type: cell-based; details: co-culture with HT-1080; SP 1 μM + antagonist 1 μM; 48 h;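 further: cultures grown in fresh human plasma from a healthy donor, six replicates, value is percent of fibroblasts positive for the marker, compared with fibroblasts cultured without tumor cells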
Protocol: (§1) All cultures were maintained 48 hours, following which the same cells were included in paraffin blocks for subsequent analysis of the expression of different markers by immunohistochemistry (see Example 1). […] All experiments were carried out sixfold. Analyzed markers in fibroblast cells (stromal cells) were: TGF-α, TGF-β1, TGF-β2, TGF-β3, SPARC, MMP-3, MMP-7, MMP-9, MMP-11, MMP-13 and MMP-14.

[2] = system: co-cultures of tumor cells-endothelial cells (C-12210); experiment: Inhibition/survival in co-cultures of primary human tumor cells and endothelial cells; assay type: cell-based; details: survival in reference to control, SP 1 μM, Aprepitant 1 μM
Protocol: To check that the interaction of primary tumor cells extracted directly from human with human vascular endothelial cells, promotes the survival of both cell types, co-cultures were performed microvascular endothelial cells from juvenile foreskins (PromoCell GmbH, Sickingenstraβe 63/65, D-69126 Heidelberg, Germany; reference C-12210) with tumor cells obtained directly from primary human tumors.
A total of 6 wells containing tumor cells were used as control for survival. Another 6 wells containing tumor cells were cultured with addition of endothelial cells.
Subsequently, cells were embedded in paraffin for analysis by immunohistochemistry. In order to identify the different cell types and quantity of them [They were labelled with primary antibodies specific for human endothelial cells (anti-CD31), carcinoma cells (Anti-Cytokeratins Spread Spectrum), glioma (Anti-glial fibrillary acidic protein), fibrosarcoma and malignant fibrous histiocytoma (Anti-Smooth Muscle Actin), Ewing sarcoma (Anti-CD99), Melanoma (Anti-HMB45), leukemias and lymphomas (Anti-Common Antigen Leucitario) and myeloma (anti CD 138). All antibodies are distributed by Dako and were used at the same concentration which is supplied (supplied pre-diluted—“ready to use”).

[3] = system: fibroblasts (PHF) co-cultured with tumor cells of lung carcinoma (A-427); experiment: Marker expression (IHC) in PHF co-cultured with A-427 tumor cells; assay type: cell-based, human; details: co-culture with A-427 lung carcinoma; SP 1 μM + antagonist 1 μM; 48 h;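 further: cultures grown in human blood plasma from a healthy donor, value is the percentage of fibroblasts positive for each marker, six replicates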
Protocol: as §1

[4] = system: fibroblasts (PHF) co-cultured with human melanoma tumor cells (MEL-HO1); experiment: Marker expression (IHC) in PHF co-cultured with MEL-HO1 tumor cells; assay type: cell-based; details: PHF co-cultured with MEL-HO1 + SP + NK1 antagonist;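 further: values are the percentage of fibroblasts positive for each marker, with cultures grown in fresh healthy-donor blood plasma and each experiment run six times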
Protocol: as §1

[5] = system: fibroblasts (PHF) cells co-cultured with human T lymphoma tumor (DERL-7); experiment: Marker expression (IHC) in PHF co-cultured with DERL-7 tumor cells; assay type: cell-based; details: PHF co-cultured with DERL-7 + SP + NK1 antagonist
Protocol: All cultures were maintained 48 hours, following which the same cells were included in paraffin blocks for subsequent analysis of the expression of different markers by immunohistochemistry (see Example 1). The primary antibodies used to perform immunohistochemical assays and their concentration are detailed in Example 2. All experiments were carried out sixfold. Analyzed markers in fibroblast cells (stromal cells) were: TGF-α, TGF-β1, TGF-β2, TGF-β3, SPARC, MMP-3, MMP-7, MMP-9, MMP-11, MMP-13 and MMP-14.

[6] = system: fibroblasts of tumors produced by lung carcinoma non small cell human (HCC-44) cells; experiment: Marker expression (IHC) in fibroblasts of tumor or peritumoral area, mouse model, HCC-44; assay type: in vivo; details: HCC-44 tumors in mice, 30 mg/kg/day oral, 7 days
Protocol: The expression on fibroblast cells obtained in the animal model was analyzed by immunohistochemistry, of the above markers: TGF-α, TGF-β1, TGF-β2, TGF-β3, MMP-7, MMP-1 1, MMP-14MP-14. […] This process was realized in mice treated with non-peptide antagonists of NK1 receptor and in untreated animals (control).

[7] = system: fibroblasts of tumors produced by tumor cell line of human melanoma (MEL HO); experiment: Marker expression (IHC) in fibroblasts of tumor or peritumoral area, mouse model, MEL HO; assay type: in vivo; details: MEL HO tumors in mice, 30 mg/kg/day oral, 7 days
Protocol: In vitro tests conducted in Example 5 are now carried out in an experimental model in mice in vivo. […] Subsequently, the expression in fibroblasts tumoral and peritumoral area of molecular markers associated with progression and maintenance of tumors: TGF-α, TGF-β1, TGF-β2, TGF-β3, MMP-7, MMP-11, MMP-14 were analyzed by immunohistochemistry.
Were injected with 2×10^7 cells tumors (corresponding, in each case to each of the tumor types as specified in Table 9) in 200 of PBS subcutaneously μl. […] Mice were randomized into two groups when the tumors reached a volume of 75 mm^3 One group was treated with non-peptide receptor antagonists NK1 and the other with placebo 200μ1. […] Tumors and samples of non-neoplastic stromal areas remote from the tumor were halved, formalin fixed (4%) and then were included in paraffin blocks for analysis by immunohistochemistry.
The expression on fibroblast cells obtained in the animal model was analyzed by immunohistochemistry, of the above markers: TGF-α, TGF-β1, TGF-β2, TGF-β3, MMP-7, MMP-1 1, MMP-14MP-14. Tables 32 to 35 depict the type of label used and the average percentage of fibroblasts present in non-tumor areas, tumor and peritumoral (±SD) which were expressing the marker shown in each of the tumor types developed from of the different cell lines used. This process was realized in mice treated with non-peptide antagonists of NK1 receptor and in untreated animals (control).

[8] = Carcinoma of lung, (Small cell carcinoma in Table 36)
[9] = Carcinoma of lung, Non Small Cell Carcinoma in Table 36
[10] = Carcinoma of thyroid, (Follicular Carcinoma in Table 36)
[11] = Carcinoma of thyroid, (Papillary Carcinoma in Table 36)

C[C@@H](O[C@H]1OCCN(Cc2n[nH]c(=O)[nH]2)[C@H]1c1ccc(F)cc1)c1cc(C(F)(F)F)cc(C(F)(F)F)c1 [Aprepitant]
PHF cells expressing MMP-3 [1]: 0% | PHF cells expressing MMP-7 [1]: 0% | PHF cells expressing MMP-9 [1]: 0% | PHF cells expressing MMP-11 [1]: 0% | PHF cells expressing MMP-13 [1]: 0% | PHF cells expressing MMP-14 [1]: 0% | PHF cells expressing SPARC [1]: 0% | PHF cells expressing TGF-α [1]: 0% | PHF cells expressing TGF-β1 [1]: 0% | PHF cells expressing TGF-β2 [1]: 0% | PHF cells expressing TGF-β3 [1]: 0% | Endothelial cells co-cultured with tumor cells + SP + Aprepitant ([2]; Carcinoma of Colon): 57 ± 3% | Tumor cells co-cultured with endothelial cells + SP + Aprepitant ([2]; Carcinoma of Colon): 61 ± 3% | Endothelial cells co-cultured with tumor cells + SP + Aprepitant ([2]; Carcinoma of Pancreas): 52 ± 4% | Tumor cells co-cultured with endothelial cells + SP + Aprepitant ([2]; Carcinoma of Pancreas): 46 ± 6% | Endothelial cells co-cultured with tumor cells + SP + Aprepitant ([2]; Carcinoma of breast): 56 ± 6% | Tumor cells co-cultured with endothelial cells + SP + Aprepitant ([2]; Carcinoma of breast): 56 ± 3% | Endothelial cells co-cultured with tumor cells + SP + Aprepitant ([2]; Carcinoma of cervix): 45 ± 3% | Tumor cells co-cultured with endothelial cells + SP + Aprepitant ([2]; Carcinoma of cervix): 46 ± 3% | Endothelial cells co-cultured with tumor cells + SP + Aprepitant ([2]; Carcinoma of endometrial): 57 ± 4% | Tumor cells co-cultured with endothelial cells + SP + Aprepitant ([2]; Carcinoma of endometrial): 49 ± 3% | Endothelial cells co-cultured with tumor cells + SP + Aprepitant [2, 8]: 46 ± 7% | Tumor cells co-cultured with endothelial cells + SP + Aprepitant [2, 8]: 63 ± 3% | Endothelial cells co-cultured with tumor cells + SP + Aprepitant [2, 9]: 43 ± 4% | Tumor cells co-cultured with endothelial cells + SP + Aprepitant [2, 9]: 65 ± 4% | Endothelial cells co-cultured with tumor cells + SP + Aprepitant ([2]; Carcinoma of ovarian): 49 ± 5% | Tumor cells co-cultured with endothelial cells + SP + Aprepitant ([2]; Carcinoma of ovarian): 54 ± 4% | Endothelial cells co-cultured with tumor cells + SP + Aprepitant ([2]; Carcinoma of prostate): 54 ± 4% | Tumor cells co-cultured with endothelial cells + SP + Aprepitant ([2]; Carcinoma of prostate): 47 ± 5% | Endothelial cells co-cultured with tumor cells + SP + Aprepitant ([2]; Carcinoma of stomach): 65 ± 2% | Tumor cells co-cultured with endothelial cells + SP + Aprepitant ([2]; Carcinoma of stomach): 54 ± 5% | Endothelial cells co-cultured with tumor cells + SP + Aprepitant [2, 10]: 45 ± 3% | Tumor cells co-cultured with endothelial cells + SP + Aprepitant [2, 10]: 46 ± 6% | Endothelial cells co-cultured with tumor cells + SP + Aprepitant [2, 11]: 56 ± 6% | Tumor cells co-cultured with endothelial cells + SP + Aprepitant [2, 11]: 56 ± 4% | Endothelial cells co-cultured with tumor cells + SP + Aprepitant ([2]; Fibrosarcoma): 45 ± 6% | Tumor cells co-cultured with endothelial cells + SP + Aprepitant ([2]; Fibrosarcoma): 55 ± 6% | Endothelial cells co-cultured with tumor cells + SP + Aprepitant ([2]; Glioma): 56 ± 5% | Tumor cells co-cultured with endothelial cells + SP + Aprepitant ([2]; Glioma): 49 ± 4% | Endothelial cells co-cultured with tumor cells + SP + Aprepitant ([2]; Hodgkin's Lymphoma): 48 ± 4% | Tumor cells co-cultured with endothelial cells + SP + Aprepitant ([2]; Hodgkin's Lymphoma): 74 ± 6% | Endothelial cells co-cultured with tumor cells + SP + Aprepitant ([2]; Leukemia B): 46 ± 5% | Tumor cells co-cultured with endothelial cells + SP + Aprepitant ([2]; Leukemia B): 54 ± 6% | Endothelial cells co-cultured with tumor cells + SP + Aprepitant ([2]; Leukemia T): 56 ± 6% | Tumor cells co-cultured with endothelial cells + SP + Aprepitant ([2]; Leukemia T): 56 ± 5% | Endothelial cells co-cultured with tumor cells + SP + Aprepitant ([2]; Malignant fibrous histiocytoma): 56 ± 6% | Tumor cells co-cultured with endothelial cells + SP + Aprepitant ([2]; Malignant fibrous histiocytoma): 44 ± 5% | Endothelial cells co-cultured with tumor cells + SP + Aprepitant ([2]; Melanoma): 56 ± 6% | Tumor cells co-cultured with endothelial cells + SP + Aprepitant ([2]; Melanoma): 46 ± 5% | Endothelial cells co-cultured with tumor cells + SP + Aprepitant ([2]; Myeloma): 54 ± 8% | Tumor cells co-cultured with endothelial cells + SP + Aprepitant ([2]; Myeloma): 64 ± 3% | Endothelial cells co-cultured with tumor cells + SP + Aprepitant ([2]; Neuroblastoma): 49 ± 4% | Tumor cells co-cultured with endothelial cells + SP + Aprepitant ([2]; Neuroblastoma): 55 ± 6% | Endothelial cells co-cultured with tumor cells + SP + Aprepitant ([2]; Non-Hodgkin's Lymphoma B): 67 ± 5% | Tumor cells co-cultured with endothelial cells + SP + Aprepitant ([2]; Non-Hodgkin's Lymphoma B): 49 ± 6% | Endothelial cells co-cultured with tumor cells + SP + Aprepitant ([2]; Non-Hodgkin's Lymphoma T): 49 ± 4% | Tumor cells co-cultured with endothelial cells + SP + Aprepitant ([2]; Non-Hodgkin's Lymphoma T): 83 ± 8% | Endothelial cells co-cultured with tumor cells + SP + Aprepitant ([2]; Renal carcinoma): 56 ± 2% | Tumor cells co-cultured with endothelial cells + SP + Aprepitant ([2]; Renal carcinoma): 53 ± 3% | Endothelial cells co-cultured with tumor cells + SP + Aprepitant ([2]; Sarcoma of Ewing): 45 ± 5% | Tumor cells co-cultured with endothelial cells + SP + Aprepitant ([2]; Sarcoma of Ewing): 45 ± 7% | PHF cells expressing MMP-3 [3]: 0% | PHF cells expressing MMP-7 [3]: 0% | PHF cells expressing MMP-9 [3]: 0% | PHF cells expressing MMP-11 [3]: 0% | PHF cells expressing MMP-13 [3]: 0% | PHF cells expressing MMP-14 [3]: 0% | PHF cells expressing SPARC [3]: 0% | PHF cells expressing TGF-α [3]: 0% | PHF cells expressing TGF-β1 [3]: 0% | PHF cells expressing TGF-β2 [3]: 0% | PHF cells expressing TGF-β3 [3]: 0% | cells expressing MMP-3 [4]: 0% | cells expressing MMP-7 [4]: 0% | cells expressing MMP-9 [4]: 0% | cells expressing MMP-11 [4]: 0% | cells expressing MMP-13 [4]: 0% | cells expressing MMP-14 [4]: 0% | cells expressing SPARC [4]: 0% | cells expressing TGF-α [4]: 0% | cells expressing TGF-β1 [4]: 0% | cells expressing TGF-β2 [4]: 0% | cells expressing TGF-β3 [4]: 0% | cells expressing MMP-3 [5]: 0% | cells expressing MMP-7 [5]: 0% | cells expressing MMP-9 [5]: 0% | cells expressing MMP-11 [5]: 0% | cells expressing MMP-13 [5]: 0% | cells expressing MMP-14 [5]: 0% | cells expressing SPARC [5]: 0% | cells expressing TGF-α [5]: 0% | cells expressing TGF-β1 [5]: 0% | cells expressing TGF-β2 [5]: 0% | cells expressing TGF-β3 [5]: 0% | fibroblasts expressing MMP-7 [6]: 0% | fibroblasts expressing MMP-11 [6]: 0% | fibroblasts expressing MMP-14 [6]: 0% | fibroblasts expressing TGF-α [6]: 0% | fibroblasts expressing TGF-β 1 [6]: 0% | fibroblasts expressing TGF-β 2 [6]: 0% | fibroblasts expressing TGF-β 3 [6]: 0% | fibroblasts expressing MMP-7 [7]: 0% | fibroblasts expressing MMP-11 [7]: 0% | fibroblasts expressing MMP-14 [7]: 0% | fibroblasts expressing TGF-α [7]: 0% | fibroblasts expressing TGF-β 1 [7]: 0% | fibroblasts expressing TGF-β 2 [7]: 0% | fibroblasts expressing TGF-β 3 [7]: 0%
